This is an account of results in patent publication US9115129B2, “Substituted pyrido[2,3-B]pyrazines as IP receptor agonists” (Novartis AG, priority 2012, dated 2015).

For this test, the target named is T1, IP receptor (Homo sapiens, UniProt P43119).
T1 construct: expressed in transfected cells; host or cells: CHO cells stably expressing the IP receptor (CHO-IP)
In words: cAMP accumulation in CHO cells stably expressing the IP receptor (CHO-IP), Perkin Elmer AlphaScreen assay. To be noted: agonist activity, 1 hour at room temperature. Format: cell-based. On the procedure: Activity of compounds at the IP receptor (IP receptor) is assessed by measuring cAMP accumulation in CHO cells stably expressing the IP receptor (CHO-IP) using the Perkin Elmer AlphaScreen assay. This technology measures the endogenous production of cAMP, in a non-radioactive luminescence proximity homogenous assay. A biological reaction occurs between streptavidin coated donor beads, biotinylated cAMP and anti-cAMP acceptor beads, bringing the donor and acceptor beads close enough together so that upon excitation a fluorescence signal is produced. On production of endogenous cAMP, competition between the biotinylated cAMP and cellular-derived cAMP causes a reduction in the fluorescent signal. The reduction in signal is proportional to the amount of cAMP being produced, thus it is possible to quantify the amount of cAMP being produced on stimulation with agonist.
Test and reference compounds are prepared at 100× [final] in 100% DMSO, and diluted 1:3 using a Biomek Fx (Beckman Coulter). This is followed by an intermediate dilution to give 5× [final] in assay buffer (HBSS containing 5 mM HEPES, 0.1% (w/v) BSA). 5 μL of 5× [final] test compounds, reference compounds and buffer/DMSO control are then transferred to a 384-well white OptiPlate, containing 20 μL CHO-IP cell suspension (15,000 cells/well, prepared from frozen), and plate is incubated at room temperature for 1 hour. A cAMP standard curve is constructed for each experiment (concentration range of 10000 nM to 0.001 nM, in assay buffer) and 25 μL of each concentration added to the last two columns of the assay plate. The incubation is terminated by the addition of lysis buffer (dH2O; 0.3% (v v^−1) Tween-20) containing 20 units mL^−1 streptavidin coated donor beads and biotinylated cAMP (pre-incubated for 30 minutes) and 20 units mL^−1 anti-cAMP acceptor beads, which are added to the lysis buffer just before addition to the assay plate. The assay plate is then incubated at room temperature in the dark, for 60 minutes with gentle shaking, and read on the Envision plate reader (Perkin Elmer).
The raw data of the reference compounds, test compounds and controls are converted into cAMP concentrations, using the cAMP standard curve, in Graph Pad Prism (Graph Pad Software Inc). EC50 as well as maximal values of the agonist curves are determined using a 4-parameter logistic equation. The % maximum response values of all test compounds are determined using the top of the treprostinil concentration-response curve.

T1 sequence (P43119 whole entry): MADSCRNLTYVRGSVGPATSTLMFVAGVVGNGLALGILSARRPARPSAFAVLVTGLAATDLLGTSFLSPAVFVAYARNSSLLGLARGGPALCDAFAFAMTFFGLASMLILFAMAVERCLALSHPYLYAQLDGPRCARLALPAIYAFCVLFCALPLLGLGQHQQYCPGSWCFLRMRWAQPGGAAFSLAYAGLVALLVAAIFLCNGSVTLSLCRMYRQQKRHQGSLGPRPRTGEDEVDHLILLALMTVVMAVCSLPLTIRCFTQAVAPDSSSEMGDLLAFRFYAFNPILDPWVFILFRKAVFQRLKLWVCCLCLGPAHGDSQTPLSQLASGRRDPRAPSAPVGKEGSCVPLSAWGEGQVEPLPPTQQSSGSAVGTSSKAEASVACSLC

On to `Cc1ccc(-c2nc3c(nc2-c2ccc(C)nc2)N(CCCCCCC(=O)O)CCC3)cc1` [Example 7, 7-(3-(6-Methylpyridin-3-yl)-2-p-tolyl-7,8-dihydropyrido[2,3-b]pyrazin-5(6H)-yl)heptanoic acid], for which the EC50 – broadly, the concentration needed to bring the measured effect to its halfway point – amounted to 0.2 nM.

The compound `O=C(O)CCCCCCN1C(=O)CCc2nc(-c3ccc(Cl)cc3)c(-c3ccc(Cl)cc3)nc21` [Example 7.1, 7-(2,3-Bis(4-chlorophenyl)-6-oxo-7,8-dihydropyrido[2,3-b]pyrazin-5(6H)-yl)heptanoic acid] returned an EC50 of 2.3 nM.

Compound `Cc1ccc(-c2nc3c(nc2-c2ccc(Cl)cc2)CCC(=O)N3CCCCCCC(=O)O)cc1` [Example 7.2, 7-(2-(4-Chlorophenyl)-6-oxo-3-p-tolyl-7,8-dihydropyrido[2,3-b]pyrazin-5(6H)-yl)heptanoic acid] gave an EC50 of 1.2 nM.

`Cc1ccc(-c2nc3c(nc2-c2ccc(Cl)cc2)N(CCCCCCC(=O)O)C(=O)CC3)cc1` [Example 7.3, 7-(3-(4-Chlorophenyl)-6-oxo-2-p-tolyl-7,8-dihydropyrido[2,3-b]pyrazin-5(6H)-yl)heptanoic acid] returned an EC50 of 0.3 nM. Compared with the last compound, the EC50 is about 4-fold lower.

As for `Cc1ccc(-c2nc3c(nc2-c2ccc(C)cc2)N(CCCCCCCCC(=O)O)C(=O)CC3)cc1` [Example 8, 9-(6-Oxo-2,3-di-p-tolyl-7,8-dihydropyrido[2,3-b]pyrazin-5(6H)-yl)nonanoic acid], the response was half-maximal at 7 nM (EC50).

Compound `Cc1ccc(-c2nc3c(nc2-c2ccc(C)cc2)N(CCCCCCCCC(=O)O)CCC3)cc1` [Example 9.1, 9-(2,3-Di-p-tolyl-7,8-dihydropyrido[2,3-b]pyrazin-5(6H)-yl)nonanoic acid] yielded an EC50 of 0.6 nM.

`Cc1ccc(-c2nc3c(nc2-c2ccc(C)cc2)N(CCCCCC(=O)O)CCC3)cc1` [Example 10, 6-(2,3-Di-p-tolyl-7,8-dihydropyrido[2,3-b]pyrazin-5(6H)-yl)hexanoic acid] returned an EC50 of 0.3 nM. Compared with the last compound, the EC50 is about 2-fold lower.

In the case of `Cc1ccc(-c2nc3c(nc2-c2ccc(C)cc2)N(CCCCCCC(=O)NS(=O)(=O)Cc2ccccc2)CCC3)cc1` [Example 12, N-(Benzylsulfonyl)-7-(2,3-di-p-tolyl-7,8-dihydropyrido[2,3-b]pyrazin-5(6H)-yl)heptanamide], a half-maximal effect (EC50) was put at 5.9 nM. This EC50 lies about 20-fold higher than the previous one.

`Cc1ccc(-c2nc3c(nc2-c2ccc(C)cc2)N(CCCCCCC(=O)NCc2ccccc2)CCC3)cc1` [Example 12.1, N-Benzyl-7-(2,3-di-p-tolyl-7,8-dihydropyrido[2,3-b]pyrazin-5(6H)-yl)heptanamide] returned an EC50 of 40.2 nM.

Regarding `Cc1ccc(-c2nc3c(nc2-c2ccc(C)cc2)N(CCCCCCC(=O)NS(=O)(=O)c2ccccc2)CCC3)cc1` [Example 12.2, 7-(2,3-Di-p-tolyl-7,8-dihydropyrido[2,3-b]pyrazin-5(6H)-yl)-N-(phenylsulfonyl) heptanamide], a half-maximal effect (EC50) was put at 6.4 nM.

Consider `Cc1ccc(-c2nc3c(nc2-c2ccc(C)cc2)N(CCCCCCC(=O)NC(C)C)CCC3)cc1` [Example 12.3, 7-(2,3-Di-p-tolyl-7,8-dihydropyrido[2,3-b]pyrazin-5(6H)-yl)-N-isopropylheptanamide], for which the EC50 was 45 nM.

Take `CNC(=O)CCCCCCN1CCCc2nc(-c3ccc(C)cc3)c(-c3ccc(C)cc3)nc21` [Example 12.4, 7-(2,3-Di-p-tolyl-7,8-dihydropyrido[2,3-b]pyrazin-5(6H)-yl)-N-methylheptanamide]: the EC50 is 12.1 nM.

With `Cc1ccc(-c2nc3c(nc2-c2ccc(C)cc2)N(CCCCCCC(=O)Nc2ccccc2)CCC3)cc1` [Example 12.5, 7-(2,3-Di-p-tolyl-7,8-dihydropyrido[2,3-b]pyrazin-5(6H)-yl)-N-phenylheptanamide], a half-maximal response (EC50) required 40.7 nM.

In turn, `CONC(=O)CCCCCCN1CCCc2nc(-c3ccc(C)cc3)c(-c3ccc(C)cc3)nc21` [Example 12.6, 7-(2,3-Di-p-tolyl-7,8-dihydropyrido[2,3-b]pyrazin-5(6H)-yl)-N-methoxyheptanamide] showed an EC50 of 4.7 nM.

The compound `Cc1ccc(-c2nc3c(nc2-c2ccc(C)cc2)N(CCCCCCC(=O)N(C)C)CCC3)cc1` [Example 12.7, 7-(2,3-Di-p-tolyl-7,8-dihydropyrido[2,3-b]pyrazin-5(6H)-yl)-N,N-dimethylheptanamide] displayed an EC50 of 75.9 nM.

Consider `Cc1ccc(-c2nc3c(nc2-c2ccc(C)cc2)N(CCCCCCC(=O)N(C)O)CCC3)cc1` [Example 12.8, 7-(2,3-Di-p-tolyl-7,8-dihydropyrido[2,3-b]pyrazin-5(6H)-yl)-N-hydroxy-N-methylheptanamide], for which the midpoint of the response, the EC50, lay at 8 nM.

With `Cc1ccc(-c2nc3c(nc2-c2ccc(C)cc2)N(CCCCCCC(=O)NO)CCC3)cc1` [Example 12.9, 7-(2,3-Di-p-tolyl-7,8-dihydropyrido[2,3-b]pyrazin-5(6H)-yl)-N-hydroxyheptanamide], a half-maximal response (EC50) required 0.4 nM.

With `Cc1ccc(-c2nc3c(nc2-c2ccc(C)cc2)N(CCCCCC(=O)NO)CCC3)cc1` [Example 12.10, 6-(2,3-Di-p-tolyl-7,8-dihydropyrido[2,3-b]pyrazin-5(6H)-yl)-N-hydroxyhexanamide], the EC50 came to 55.6 nM.

`Cc1ccc(-c2nc3c(nc2-c2ccc(C)cc2)N(CCCCCCC(=O)NS(C)(=O)=O)CCC3)cc1` [Example 13.4, 7-(2,3-Di-p-tolyl-7,8-dihydropyrido[2,3-b]pyrazin-5(6H)-yl)-N-(methylsulfonyl) heptanamide] had an EC50 of 0.7 nM.

Regarding `Cc1ccc(-c2nc3c(nc2-c2ccc(C)cc2)N(CCCCCCC(=O)NS(=O)(=O)C(C)C)CCC3)cc1` [Example 13.5, 7-(2,3-Di-p-tolyl-7,8-dihydropyrido[2,3-b]pyrazin-5(6H)-yl)-N-(isopropylsulfonyl) heptanamide], the EC50 was 5 nM. This EC50 is about 7.1-fold higher than that of the compound before.

`Cc1ccc(-c2nc3c(nc2-c2ccc(C)cc2)N(CCCCCCC(=O)O)CC(N2CCCCC2)C3)cc1` (centres unmarked) [Example 14] displayed an EC50 of 2.7 nM.

As for `Cc1ccc(-c2nc3c(nc2-c2ccc(C)cc2)C(C)(O)CCN3CCCCCCC(=O)O)cc1` (centres unmarked) [Example 16, 7-(8-Hydroxy-8-methyl-2,3-di-p-tolyl-7,8-dihydropyrido[2,3-b]pyrazin-5(6H)-yl)heptanoic acid], the EC50 is 0.4 nM.

Consider “(R)-6-(2,3-di-p-tolyl-5,6,7,8-tetrahydropyrido[2,3-b]pyrazin-6-yl)hexanoic acid or (S)-6-(2,3-di-p-tolyl-5,6,7,8-tetrahydropyrido[2,3-b]pyrazin-6-yl)hexanoic acid [1(i)]”, for which the EC50 is 0.9 nM.
